From patent US7211436B1, “Compositions and methods for regulating abscisic acid-induced closure of plant stomata” (The Penn State Research Foundation, priority 1999, dated 2007)

Experiments:
[1] = system: guard cells (stomatal aperture); assay: Stomatal closure in abaxial epidermal peels of transformed V. faba leaves; assay type: cell-based, Vicia faba; conditions: for change in half aperture of stomata, closure: 1 h, illuminated
Procedure: (§1) Analysis of AAPK mutants for stomatal aperture changes and anion channel activation. V. faba leaves were biolistically transformed with the pGFP, pAAPK-GFP, or pAAPK(K43A)-GFP constructs. The V. faba leaves were bombarded with gold particles (Bio-Rad) coated with one of the DNA constructs. Bombardment was via a particle delivery system 1000/He (Bio-Rad) as described. (J. Marc et al., 1998, Plant Cell 10:1927).
(§2) Abaxial epidermal peels were isolated and the transformed guard cells were assayed for ABA-mediated prevention of stomatal opening and for stomatal closure stimulated by ABA, CO2 or darkness. Conditions were as in Assman, S., and Baskin, T. (1998) J. Exp. Bot. 49:163 except that the incubation solution was 10 mM MES, 30 mM KCl, pH=6.1, with or without 50 μM {±} cis,trans-ABA. For closure experiments, the transformed leaves were illuminated with 0.20 mmol m^−2 s^−1 white light for 2.5 h to open the stomata. The abaxial epidermal peels were placed in incubation solution and treated with either darkness, 25 μM {±} cis,trans-ABA or with 700 ppm CO2 for 1 h.

native AAPK = assay: Native AAPK activity; assay type: biochemical, Vicia faba
Procedure: Isolation and Identification of ABA-Activated Protein Kinase (AAPK). Guard cell protoplasts (2×10^6; 99.6% pure) were prepared from Vicia faba. Protoplasts were treated with either darkness, ABA or elevated CO2 concentrations prior to protein isolation. Protoplast proteins were extracted and subjected to 2-dimensional gel electrophoresis. Separation was via 12% SDS-polyacrylamide gel electrophoresis (SDS-PAGE). Kinase autophosphorylation activity of subsequently renatured proteins was detected by established methods.

slow anion channels = assay: Whole-cell patch-clamp of guard cell protoplasts, anion channel activation; assay type: cell-based, Vicia faba
Procedure: Anion channel activation was measured in guard cell protoplasts. Whole-cell patch-clamp experiments were performed according to established methods. Pipette solution contained 100 mM KCl, 50 mM tetramethylammonium, 2 mM MgCl, 6.7 mM EGTA-(Tris)2, 3.35 mM CaCl2, 10 mM HEPES, pH=7.1 (Tris) and 5 mM Mg-ATP. Bath solution contained 40 mM CaCl2, 2 mM MgCl and 10 mM MES-Tris pH5.6. Osmolalities were adjusted with sorbitol to 500 mosmol/kg (in the pipette) or 470 mosmol/kg (in the bath). Protein kinase inhibitor K-252a (Calbiochem) was prepared as a stock solution at 2 mM in dimethyl sulfoxide (DMSO).

[2] = system: guard cells (stomatal aperture); assay: ABA-mediated prevention of stomatal opening in abaxial epidermal peels of transformed V. faba leaves; assay type: cell-based, Vicia faba; conditions: ABA 50 μM, illuminated
Procedure: as §1, §2

AAPK = assay: Kinase activity of immunoprecipitated GFP fusion proteins with histone III-S as substrate; assay type: biochemical, Vicia faba; conditions: cells transfected with pAAPK-GFP; protoplasts treated with ABA prior to isolation of the proteins
Description: Analysis of AAPK mutants and hybrid expression DNA constructs for ABA-activated protein kinase activity. 1.5×10^7 V. faba guard cell protoplasts were transfected with either the vector, pGFP, or the constructs, pAAPK-GFP or pAAPK(K43A)-GFP by polyethylene glycol (PEG)-mediated DNA transfer. After uptake and expression, protoplasts were lysed and recombinant protein was immunoprecipitated with anti-GFP peptide antibodies (Clontech) and protein A-Sepharose CL-4B (Amersham Pharmacia Biotech). Immunoprecipitated proteins were assayed for kinase activity using histone III-S (Sigma) as substrate.

[3] = AAPK(K43A)-GFP transformed guard cells, ABA 25 μM or CO2 700 ppm
[4] = AAPK(K43A)-GFP, untransformed guard cells, ABA 25 μM or CO2 700 ppm

Compound	change in half aperture of stomata, closure [1, 3]	change in half aperture of stomata, closure [1, 4]	effect on native AAPK activity (native AAPK)	effect on ABA regulation of anion channels (slow anion channels; untransformed cells)	effect on ABA-induced stomatal closure ([1]; kinase inhibitor, untransformed cells)	change in half aperture of stomata, opening ([2]; AAPK(K43A)-GFP transformed guard cells)	change in half aperture of stomata, opening ([2]; AAPK(K43A)-GFP, untransformed guard cells)	change in half aperture of stomata, opening ([2]; AAPK-GFP column, untransformed guard cells)	change in half aperture of stomata, opening ([2]; AAPK-GFP transformed guard cells)	change in half aperture of stomata, opening ([2]; GFP column, untransformed guard cells)	change in half aperture of stomata, opening ([2]; GFP transformed guard cells)	effect on slow anion channels (slow anion channels; V. faba guard cells)	effect on anion current magnitude (slow anion channels; whole-cell configuration)	histone phosphorylation activity of immunoprecipitate after ABA treatment of protoplasts (AAPK)	change in half aperture of stomata, closure ([1]; AAPK-GFP column, untransformed guard cells, ABA 25 μM)	change in half aperture of stomata, closure ([1]; AAPK-GFP transformed guard cells, ABA 25 μM)	change in half aperture of stomata, closure ([1]; GFP column, untransformed guard cells, ABA 25 μM)	change in half aperture of stomata, closure ([1]; GFP transformed guard cells, ABA 25 μM)
O=C=O [CO2]	−2.23 ± 0.44 (36) micrometers	−2.31 ± 0.46 (36) micrometers																
COC(=O)[C@@]1(O)C[C@H]2O[C@]1(C)n1c3ccccc3c3c4c(c5c6ccccc6n2c5c31)C(=O)NC4 [K-252a]			inhibits	inhibits	inhibits													
CC1=CC(=O)CC(C)(C)C1(O)/C=C/C(C)=C\C(=O)O (racemic) [ABA, abscisic acid]	−0.36 ± 0.26 (56) micrometers	−2.55 ± 0.21 (56) micrometers				0.42 ± 0.17 (46) micrometers	0.44 ± 0.15 (46) micrometers	0.41 ± 0.28 (36) micrometers	0.43 ± 0.22 (36) micrometers	0.45 ± 0.27 (36) micrometers	0.42 ± 0.22 (36) micrometers	activated	increased	significantly enhanced	−2.58 ± 0.24 (36) micrometers	−2.59 ± 0.30 (36) micrometers	−2.54 ± 0.35 (36) micrometers	−2.52 ± 0.29 (36) micrometers
